Here are results for four molecules from ChEMBL document CHEMBL1154048, “Design, synthesis and pharmacological evaluation of new 1-[3-(4-arylpiperazin-1-yl)-2-hydroxy-propyl]-3,3-diphenylpyrrolidin-2-one derivatives with antiarrhythmic, antihypertensive, and alpha-adrenolytic activity” (Eur J Med Chem, 2009).

Format in all cases: functional, Artery
Test [1] concerns Rattus norvegicus. Briefly: Hypotensive activity in normotensive Wistar rat assessed as systolic blood pressure at 5 mg/kg, iv after 30 mins (Rvb=138 +/- 0.9 mmHg).
The subject of test [2] is Rattus norvegicus. Briefly: Hypotensive activity in normotensive Wistar rat assessed as systolic blood pressure at 2.5 mg/kg, iv after 10 mins (Rvb=125.6 +/- 7.6 mmHg).
Test [3] concerns Rattus norvegicus. Kind of test: Hypotensive activity in normotensive Wistar rat assessed as systolic blood pressure at 2.5 mg/kg, iv after 30 mins (Rvb=125.6 +/- 7.6 mmHg).
The subject of test [4] is Rattus norvegicus. Kind of test: Hypotensive activity in normotensive Wistar rat assessed as systolic blood pressure at 2.5 mg/kg, iv after 20 mins (Rvb=125.6 +/- 7.6 mmHg).
Test [5] concerns Rattus norvegicus. Briefly: Hypotensive activity in normotensive Wistar rat assessed as diastolic blood pressure at 5 mg/kg, iv after 60 mins (Rvb=125.5 +/- 0.6 mmHg).
Test [6] relates to Rattus norvegicus. Briefly: Hypotensive activity in normotensive Wistar rat assessed as systolic blood pressure at 5 mg/kg, iv after 5 mins (Rvb=140.5 +/- 1.1 mmHg).
Test [7] deals with Rattus norvegicus. Kind of test: Hypotensive activity in normotensive Wistar rat assessed as systolic blood pressure at 5 mg/kg, iv after 20 mins (Rvb=140.5 +/- 1.1 mmHg).
In test [8] the test system is Rattus norvegicus. Kind of test: Hypotensive activity in normotensive Wistar rat assessed as systolic blood pressure at 5 mg/kg, iv after 30 mins (Rvb=139 +/- 0.6 mmHg).

As to `Cl.Cl.O=C1N(CC(O)CN2CCN(c3ccccc3C(F)(F)F)CC2)CCC1(c1ccccc1)c1ccccc1` (stereo not drawn), the Activity with Rattus norvegicus [1] is 116 mmHg.

For the molecule `COc1ccc(N2CCN(CC(O)CN3CCC(c4ccccc4)(c4ccccc4)C3=O)CC2)cc1.Cl.Cl` (stereo not drawn), the Activity in the test with Rattus norvegicus [2] is listed as 115.2 mmHg; with Rattus norvegicus [3] it was 105.6 mmHg; in the test on Rattus norvegicus [4] it was 107.6 mmHg.

Regarding `Cl.Cl.O=C1N(CC(O)CN2CCN(c3ccccc3)CC2)CCC1(c1ccccc1)c1ccccc1` (stereo not drawn), the results for the Activity in the test with Rattus norvegicus [5], in the test on Rattus norvegicus [6] and in the test on Rattus norvegicus [7] were 109.5 mmHg, 135.5 mmHg and 135.5 mmHg, respectively.

For the molecule `COc1ccccc1N1CCN(CC(O)CN2CCC(c3ccccc3)(c3ccccc3)C2=O)CC1.Cl.Cl` (stereo not drawn), the Activity in the test on Rattus norvegicus [8] is 116 mmHg.
